Values quoted from earlier work as cited in PMC7904743, “WIDOCK: a reactive docking protocol for virtual screening of covalent inhibitors” (Journal of Computer-Aided Molecular Design, 2021).
Like-named read-outs stand apart in the source and are kept apart here.

How the values were obtained:
[1] = thiol reactivity, cited from earlier work
NUDT7 = conditions: protein labeling at 200 μM; experimental actives if % labeling higher than 50%; cited from earlier work
OTUB2 = conditions: experimental actives if % labeling higher than 50%, cited from earlier work
[2] = natural log of average kinetic rate constant
[3] = natural log of average rate constant
[4] = natural log of average rate constant k
[5] = natural logarithm of average rate constant

Row | Structure (SMILES) | ln(avg k) [1, 2] | ln(avg k) [1, 3] | NUDT7 % labeling (NUDT7) [%] | OTUB2 % labeling (OTUB2; OTUB2 protein labeling) [%] | ln(avg k) [1, 4] | ln(avg k) [1, 5] | OTUB2 % labeling (OTUB2) [%]
1 | CC(C)N(C(=O)CCl)C(C)C [PCM-0103023, CC(C)N(C(=O)CCl)C(C)C] | -17.155 | -17.155 | 0 | 0 |  |  | 
2 | O=C(CCl)N1N=C(c2cccs2)CC1c1ccco1 (stereo not drawn) [PCM-0102295, O=C(CCl)N1N=C(c2cccs2)CC1c1ccco1] |  |  | 46 |  | -14.545 | -14.545 | 6
3 | CC(C)c1nnc(NC(=O)CCl)s1 [PCM-0102928, CC(C)c1nnc(NC(=O)CCl)s1] | -15.769 | -15.769 | 4 | 0 |  |  | 
4 | Cc1ccc(C)c(NC(=O)CCl)c1 [PCM-0102398, Cc1ccc(C)c(NC(=O)CCl)c1] |  |  | 0 |  | -16.327 | -16.327 | 0
5 | CNC(=O)C1CCCN1C(=O)CCl (stereo not drawn) [PCM-0102518, CNC(=O)C1CCCN1C(=O)CCl] |  |  | 0 |  | -16.106 | -16.106 | 0
6 | Cc1cc(C)cc(NC(=O)CCl)c1 [PCM-0102394, Cc1cc(C)cc(NC(=O)CCl)c1] |  |  | 0 |  | -15.891 | -15.891 | 22
7 | O=C(CCl)NNC(=O)c1ccc(F)cc1 [PCM-0102430, O=C(CCl)NNC(=O)c1ccc(F)cc1] |  |  | 0 |  | -17.459 | -17.459 | 31
8 | O=C(CCl)N1CCN(c2cccc(Cl)c2)CC1 [PCM-0103032, O=C(CCl)N1CCN(c2cccc(Cl)c2)CC1] | -15.657 | -15.657 | 22 | 21 |  |  | 
9 | CCN(C(=O)CCl)c1ccc(F)cc1 [PCM-0102900, CCN(C(=O)CCl)c1ccc(F)cc1] | -15.837 | -15.837 | 29 | 0 |  |  | 
10 | O=C(CCl)N1CCCc2cc(S(=O)(=O)N3CCCC3)ccc21 [PCM-0102625, O=C(CCl)N1CCCc2cc(S(=O)(=O)N3CCCC3)ccc21] |  |  | 0 |  | -15.992 | -15.992 | 0
11 | Cc1ccc(CNC(=O)CCl)s1 [PCM-0102973, Cc1ccc(CNC(=O)CCl)s1] | -16.818 | -16.818 | 11 | 75 |  |  | 
12 | Cc1cc(NC(=O)CCl)no1 [PCM-0102500, Cc1cc(NC(=O)CCl)no1] |  |  | 0 |  | -15.955 | -15.955 | 35
13 | NC(=O)c1c(NC(=O)CCl)sc2c1CCC2 [PCM-0102164, NC(=O)c1c(NC(=O)CCl)sc2c1CCC2] |  |  | 28 |  | -15.581 | -15.581 | 0
14 | CC(=O)NNC(=O)CCl [PCM-0102310, CC(=O)NNC(=O)CCl] |  |  | 0 |  | -16.812 | -16.812 | 18
15 | CC1(C)CCCN1C(=O)CCl [PCM-0103060, CC1(C)CCCN1C(=O)CCl] | -15.914 | -15.914 | 0 | 0 |  |  | 
16 | O=C(CCl)N1CCN(S(=O)(=O)c2cccs2)CC1 [PCM-0102241, O=C(CCl)N1CCN(S(=O)(=O)c2cccs2)CC1] |  |  | 12 |  | -15.262 | -15.262 | 0
17 | Cc1nnc(NC(=O)CCl)s1 [PCM-0102211, Cc1nnc(NC(=O)CCl)s1] |  |  | 0 |  | -15.999 | -15.999 | 0
18 | O=C(CCl)N1CCN(c2ccc(F)cc2)CC1 [PCM-0102905, O=C(CCl)N1CCN(c2ccc(F)cc2)CC1] | -15.525 | -15.525 | 10 | 7 |  |  | 
19 | CC1CCC(C#N)(N(C)C(=O)CCl)CC1 (stereo not drawn) [PCM-0102251, CC1CCC(C#N)(N(C)C(=O)CCl)CC1] |  |  | 5 |  | -15.448 | -15.448 | 0
20 | O=C(CCl)Nc1ccc([N+](=O)[O-])cc1C(F)(F)F [PCM-0102406, O=C(CCl)Nc1ccc([N+](=O)[O-])cc1C(F)(F)F] |  |  | 0 |  | -16.390 | -16.390 | 0
21 | O=C(CCl)NCc1ccccc1F [PCM-0102149, O=C(CCl)NCc1ccccc1F] |  |  | 0 |  | -16.082 | -16.082 | 62

Row | Structure (SMILES) | ln(avg k) [1, 2] | ln(avg k) [1, 3] | NUDT7 % labeling (NUDT7) [%] | OTUB2 % labeling (OTUB2; OTUB2 protein labeling) [%] | ln(avg k) [1, 4] | ln(avg k) [1, 5] | OTUB2 % labeling (OTUB2) [%]
22 | O=C(CCl)Nc1cc(Cl)ccc1C(=O)O [PCM-0102412, O=C(CCl)Nc1cc(Cl)ccc1C(=O)O] |  |  | 16 |  | -17.207 | -17.207 | 7
23 | O=C(CCl)NCc1ccc2c(c1)OCO2 [PCM-0102578, O=C(CCl)NCc1ccc2c(c1)OCO2] |  |  | 0 |  | -16.736 | -16.736 | 16
24 | NC(=O)C1CCN(C(=O)CCl)CC1 [PCM-0102584, NC(=O)C1CCN(C(=O)CCl)CC1] |  |  | 0 |  | -15.701 | -15.701 | 0
25 | O=C(CCl)Nc1ccc(F)c([N+](=O)[O-])c1 [PCM-0102238, O=C(CCl)Nc1ccc(F)c([N+](=O)[O-])c1] |  |  | 23 |  | -15.369 | -15.369 | 32
26 | O=C(CCl)N1CCN(S(=O)(=O)c2ccc(F)c(Cl)c2)CC1 [PCM-0102343, O=C(CCl)N1CCN(S(=O)(=O)c2ccc(F)c(Cl)c2)CC1] |  |  | 12 |  | -15.080 | -15.080 | 0
27 | O=C(CCl)Nc1ccc(C(=O)O)cc1 [PCM-0102400, O=C(CCl)Nc1ccc(C(=O)O)cc1] |  |  | 0 |  | -16.430 | -16.430 | 0
28 | O=C(CCl)N1CCN(CC(=O)N2CCOCC2)CC1 [PCM-0102133, O=C(CCl)N1CCN(CC(=O)N2CCOCC2)CC1] |  |  | 0 |  | -15.992 | -15.992 | 15
29 | Cc1cc(Cl)ccc1NC(=O)CCl [PCM-0102214, Cc1cc(Cl)ccc1NC(=O)CCl] |  |  | 8 |  | -16.385 | -16.385 | 39
30 | O=C(CCl)N=c1sccn1Cc1ccccc1Cl [PCM-0102550, O=C(CCl)N=c1sccn1Cc1ccccc1Cl] |  |  | 11 |  | -15.426 | -15.426 | 0
31 | O=C(CCl)NC(=O)Nc1ccc2c(c1)OCO2 [PCM-0102333, O=C(CCl)NC(=O)Nc1ccc2c(c1)OCO2] |  |  | 29 |  | -15.968 | -15.968 | 53
32 | O=C(CCl)Nc1cccc(Cl)c1 [PCM-0102198, O=C(CCl)Nc1cccc(Cl)c1] |  |  | 28 |  | -16.004 | -16.004 | 37
33 | CC(NC(=O)CCl)c1cccs1 (stereo not drawn) [PCM-0102180, CC(NC(=O)CCl)c1cccs1] |  |  | 16 |  | -16.321 | -16.321 | 55
34 | COC(=O)c1cc(Cl)cc(Cl)c1NC(=O)CCl [PCM-0102912, COC(=O)c1cc(Cl)cc(Cl)c1NC(=O)CCl] | -17.100 | -17.100 | 17 | 0 |  |  | 
35 | CC1(C)C2CCC1(C)C(NC(=O)CCl)C2 (stereo not drawn) [PCM-0102315, CC1(C)C2CCC1(C)C(NC(=O)CCl)C2] |  |  | 0 |  | -16.417 | -16.417 | 0
36 | O=C(CCl)Nc1ccc(OC(F)(F)F)cc1 [PCM-0102276, O=C(CCl)Nc1ccc(OC(F)(F)F)cc1] |  |  | 24 |  | -15.893 | -15.893 | 36
37 | COc1ccc2nc(NC(=O)CCl)sc2c1 [PCM-0102330, COc1ccc2nc(NC(=O)CCl)sc2c1] |  |  | 100 |  | -15.593 | -15.593 | 0
38 | COc1cc(Cl)c(C)cc1NC(=O)CCl [PCM-0102210, COc1cc(Cl)c(C)cc1NC(=O)CCl] |  |  | 0 |  | -15.971 | -15.971 | 25
39 | O=C(CCl)Nc1ccc(Cl)nc1 [PCM-0102891, O=C(CCl)Nc1ccc(Cl)nc1] | -15.610 | -15.610 | 25 | 0 |  |  | 
40 | O=C(CCl)Nc1ccc(N2CCOCC2)cc1 [PCM-0102582, O=C(CCl)Nc1ccc(N2CCOCC2)cc1] |  |  | 0 |  | -15.715 | -15.715 | 54
41 | O=C(CCl)Nc1cc(F)cc(F)c1 [PCM-0102874, O=C(CCl)Nc1cc(F)cc(F)c1] | -15.799 | -15.799 | 18 | 0 |  |  | 
42 | CC(NC(=O)CCl)c1ccccc1Br (stereo not drawn) [PCM-0102256, CC(NC(=O)CCl)c1ccccc1Br] |  |  | 19 |  | -16.021 | -16.021 | 29
